Assay results from US20040254094A1, “Suppression of cyclin kinase activity for prevention and treatment of infections” (priority 2000, published 2004).
Like-named read-outs stand apart in the source and are kept apart here.

How the values were obtained:
[1] = tested on: CDK1/cyclin B; details: cited from earlier work
[2] = tested on: Human Cytomegalovirus; experiment: Infectious HCMV yield by plaque assay from infected density-arrested LU cells; format: cell-based, Human cytomegalovirus strain AD169; details: for inhibition at 3.3 µM / inhibition at 10 µM / inhibition at 33 µM / inhibition at 100 µM: Human betaherpesvirus 5, 96 h
[3] = tested on: HCMV; experiment: Viral late antigen pp28 expression by immunofluorescence in HCMV-infected LU cells; format: cell-based, Human cytomegalovirus; details: between 24 and 96 hr after infection in the presence of PAA
Description: Cells were cultured on sterile glass coverslips. The cells were washed three times in PBS and fixed in acetone:methanol (1:1) at −20° C. for 10 min. The permeabilized cells were incubated with primary antibody diluted in PBS for 1 hr at 37° C. in a humidified chamber. […] The excess conjugate was removed by washing the cells in PBS for 30 min. After drying, the cells were mounted in PBS/glycerol (1:1) and examined with the aid of a Zeiss Photomicroscope III using a 40/1.0 Neofluar lens. Images were photographed on slide film.

[4] = tested on: human lung fibroblasts; details: 100 μg/ml (0.75 mM); cited from earlier work
[5] = tested on: LU cells; details: within 24 hr after serum in the presence of PAA (about 68% without inhibitor)
Source text: The specificity of PAA was confirmed by measuring cellular DNA content after serum stimulation of quiescent LU cells in the presence and absence of PAA.

[6] = tested on: HCMV-infected subconfluent LU cells; experiment: Cell cycle distribution (DNA content, flow cytometry) following HCMV infection of subconfluent LU cells; details: for Percent cells in phase G0/G1 / Percent cells in phase G2/M / Percent cells in phase S: HCMV 5 PFU/cell + PAA 100 μg/ml, mean (SD)
Description: The DNA content of serum-arrested, HCMV-infected, subconfluent LU cells was analyzed by flow cytometry to determine to what extent productively infected cells initiate DNA synthesis.
Next, the DNA content of LU cells as a function of time after HCMV infection of subconfluent cells in the presence of PAA was analyzed.

[7] = tested on: HCMV; experiment: HCMV DNA abundance by slot blot hybridization in infected density-arrested LU cells; format: cell-based, Human cytomegalovirus strain AD169; details: 72 hr post-infection
[8] = tested on: non-infected LU cells; experiment: Hematoxylin and eosin staining of non-infected LU cells; format: cell-based, human; details: 15 μM for 96 hr
[9] = Tolerated dose in animals; format: in vivo; details: printed 'tolerated by rate'
Source text: The preferred dosage of CDK inhibitor in a parenteral administration may vary, depending upon the extent of the virus infection, the severity of the symptoms associated with the infection and patient age, weight and medical history. The number of administrations of the parenteral composition of the CDK inhibitor will also vary according to the response of the individual patient to the treatment. In one exemplary application, the dosage of CDK inhibitor may vary with the type of disease and the route of administration. Further studies with animal models of infection will completely define projected doses. […] Weaker CDK2 inhibitors will be needed at higher concentrations, and stronger, at lower.

[10] = tested on: HCMV-infected LU cells; experiment: Hematoxylin and eosin staining of HCMV-infected LU cells
[11] = read-out: Percent inhibition of HCMV infectious yields, 3.3 μM, harvested 96 hrs
[12] = read-out: Percent inhibition of HCMV infectious yields, 10 μM (third line of each group), harvested 96 hrs
[13] = read-out: Percent inhibition of HCMV infectious yields, 10 μM, harvested 96 hrs
[14] = read-out: Percent inhibition of HCMV infectious yields, 33 μM, harvested 96 hrs
[15] = read-out: Percent inhibition of HCMV infectious yields, 100 μM, harvested 96 hrs
[16] = 3.3 μM, harvested 96 hrs, read-out: Percent inhibition of HCMV infectious yields
[17] = 10 μM (third line of each group), harvested 96 hrs, read-out: Percent inhibition of HCMV infectious yields
[18] = 10 μM, harvested 96 hrs, read-out: Percent inhibition of HCMV infectious yields
[19] = 33 μM, harvested 96 hrs, read-out: Percent inhibition of HCMV infectious yields
[20] = 100 μM, harvested 96 hrs, read-out: Percent inhibition of HCMV infectious yields
[21] = 10 μM (third line of each group), harvested 96 hrs

Compound: CN(C)c1ncnc2nc[nH]c12 [6-Dimethylaminopurine]
- IC50 [1]: 120 µM

Compound: Cc1c2ccncc2c(C)c2c1[nH]c1ccc(O)cc12 [9-hydroxyellipticine]
- IC50 [1]: 1 µM

Compound: O=C1Cc2c([nH]c3ccc([N+](=O)[O-])cc23)-c2ccccc2N1 [Alsterpaullone]
- inhibition at 3.3 µM [2, 11]: 100%
- inhibition at 10 µM [2, 12]: 100%
- inhibition at 10 µM [2, 13]: 100%
- inhibition at 33 µM [2, 14]: 100%
- inhibition at 100 µM [2, 15]: 100%

Compound: OCCCNc1cc(-c2ccnc(Nc3cccc(Cl)c3)n2)ccn1 [CGP60474]
- IC50 [1]: 0.02 µM

Compound: COc1ccc(CNc2nc(N(CCO)CCO)nc3c2ncn3C(C)C)cc1 [CVT-313]
- IC50 [1]: 4.2 µM

Compound: CN1CC[C@H](c2c(O)cc(O)c3c(=O)cc(-c4ccccc4Cl)oc23)[C@H](O)C1 [Flavopiridol]
- inhibition at 3.3 µM [2, 16]: 100%
- inhibition at 10 µM [2, 17]: 100%
- inhibition at 10 µM [2, 18]: 100%
- inhibition at 33 µM [2, 19]: 100%
- inhibition at 100 µM [2, 20]: 100%

Compound: CC(C)=CCNc1ncnc2nc[nH]c12 [Isopentenyladenine]
- IC50 [1]: 55 µM

Compound: CC(C)[C@H](CO)Nc1nc(Nc2cc(N)cc(Cl)c2)c2ncn(C(C)C)c2n1 [NG97, aminopurvalanol]
- inhibition at 3.3 µM [2, 16]: 99.9%
- inhibition at 10 µM [2, 17]: 100%
- inhibition at 10 µM [2, 18]: 51.3%
- inhibition at 33 µM [2, 19]: 100%
- inhibition at 100 µM [2, 20]: 100%

Compound: O=C(O)CP(=O)(O)O [PAA, phosphonoacetic acid]
- pp28 expression [3]: could not be detected
- viral DNA replication [4]: blocks viral DNA replication
- cells in S, G2, or M phase [5]: about 57%
- Percent cells in phase G0/G1 ([6]; 0 hrs after treatment): 93.3 (1.2) %
- Percent cells in phase G2/M ([6]; 0 hrs after treatment): 5.1 (1.0) %
- Percent cells in phase S ([6]; 0 hrs after treatment): 1.6 (0.2) %
- Percent cells in phase G0/G1 ([6]; 24 hrs): 97.2 (0.4) %
- Percent cells in phase G2/M ([6]; 24 hrs): 1.9 (0.3) %
- Percent cells in phase S ([6]; 24 hrs): 0.9 (0.1) %
- Percent cells in phase G0/G1 ([6]; 48 hrs): 97.1 (0.8) %
- Percent cells in phase G2/M ([6]; 48 hrs): 1.3 (0.4) %
- Percent cells in phase S ([6]; 48 hrs): 1.5 (0.4) %
- Percent cells in phase G0/G1 ([6]; 72 hrs): 97.2 (0.3) %
- Percent cells in phase G2/M ([6]; 72 hrs): 0.9 (0.1) %
- Percent cells in phase S ([6]; 72 hrs): 1.9 (0.3) %
- DNA content of LU cells after HCMV infection in the presence of PAA ([6]; subconfluent cells): no detectable increase in DNA content

Compound: CCCCc1c(-c2ccc(O)cc2)[nH]c2nccnc12 [RP107]
- Percent inhibition of HCMV infectious yields ([2]; 3.3 μM, harvested 96 hrs): 96.67%
- Percent inhibition of HCMV infectious yields [2, 21]: 99.98%
- Percent inhibition of HCMV infectious yields ([2]; 10 μM, harvested 96 hrs): 74.67%
- Percent inhibition of HCMV infectious yields ([2]; 33 μM, harvested 96 hrs): 99.9968%
- Percent inhibition of HCMV infectious yields ([2]; 100 μM, harvested 96 hrs): 99.9984%

Compound: CC[C@H](CO)Nc1nc(NCc2ccccc2)c2ncn(C(C)C)c2n1 [Roscovitine]
- HCMV DNA abundance reduced by ([7]; 1 μM): ~50%
- viral DNA abundance reduced by ([7]; 10 μM): > 90%
- Infectious HCMV yields reduced by ([2]; 2.5 μM, 96 hr post-infection): > 90%
- inhibition at 3.3 µM [2, 11]: 90.7%
- inhibition at 10 µM [2, 12]: 96.5%
- inhibition at 10 µM [2, 13]: 91.3%
- inhibition at 33 µM [2, 14]: 100%
- inhibition at 100 µM [2, 15]: > 100%
- inhibition at 10 µM ([2]; read-out: inhibition of infectious HCMV yields, 10 μM, 96 hr post-infection): > 99.9%
- morphological changes of non-infected cells [8]: no morphological changes
- tolerated dose [9]: 3 µg/kg
- morphology of HCMV-infected cells ([10]; 5 μM, 96 hr post-infection): rounded and appeared to be undergoing cell death
- morphology of HCMV-infected cells ([10]; 15 μM, 96 hr after infection): clearly dying or dead

Compound: CN[C@@H]1C[C@H]2O[C@@](C)([C@@H]1OC)n1c3ccccc3c3c4c(c5c6ccccc6n2c5c31)C(=O)NC4 [Staurosporine]
- IC50 [1]: 0.004 µM

Compound: Cc1ccc(C(=O)Nc2ccc(S(=O)(=O)O)c3cc(S(=O)(=O)O)cc(S(=O)(=O)O)c23)cc1NC(=O)c1cccc(NC(=O)Nc2cccc(C(=O)Nc3cc(C(=O)Nc4ccc(S(=O)(=O)O)c5cc(S(=O)(=O)O)cc(S(=O)(=O)O)c45)ccc3C)c2)c1 [Suramin]
- IC50 [1]: 4 µM

Compound: N#Cc1cn([C@@H]2O[C@H](CO)[C@@H](O)[C@H]2O)c2ncnc(N)c12 [Toyocamycin]
- IC50 [1]: 0.88 µM

Compound: O=C1CCCO1 [γ-Butyrolactone]
- IC50 [1]: 0.6 µM

Compound: Indirubin-3′-monoxime
- Percent inhibition of HCMV infectious yields ([2]; 3.3 μM, harvested 96 hrs): 56.69%
- Percent inhibition of HCMV infectious yields [2, 21]: 99.9988%
- Percent inhibition of HCMV infectious yields ([2]; 10 μM, harvested 96 hrs): 26.67%
- Percent inhibition of HCMV infectious yields ([2]; 33 μM, harvested 96 hrs): 99.9976%
- Percent inhibition of HCMV infectious yields ([2]; 100 μM, harvested 96 hrs): 99.9992%
- IC50 [1]: 0.18 µM

Compound: Purvalanol A&B
- IC50 [1]: 0.004 µM
